# Values of other authors, collected in US20040120916A1, “Contact lens care compositions, methods of use and preparation which protect ocular tissue membrane integrity” (ADVANCED MEDICAL OPTICS, INC., priority 2002, published 2004).
# Columns and labels:
# [1] = test system: lipopolysaccharide (LPS)-intoxicated rats; details: LPS rat stomachs irrigated with acid solution
# [2] = test system: rat large-intestinal tissue; details: decrease caused by sodium laurate
# [3] = test system: rat large-intestinal tissue
# [4] = test system: human corneal epithelial cells; details: 450 mOsm/kg hypertonic medium; 1 mM taurine (0.0125 w/v %)
smiles,measurement,setting,value
NCCS(=O)(=O)O [taurine],ulcerogenic parameters including mucosal histamine concentrations,[1],dose-dependent attenuations
same,"transepithelial electrical resistance, a measure of cell membrane integrity",[2],significantly suppressed the decrease
same,release of histamine enhanced by sodium laurate,[3],suppress the release of histamine
same,cell survival,[4],significantly increased cell survival
